One series concerns fasted healthy subjects. Conditions: 200 mg once daily; cited from earlier work.
The test system of series [1] is patients. The settings on record: 150 mg once daily; cited from earlier work.
The conditions of series [2]: in humans; accumulates in fat tissue; cited from earlier work.
The conditions of series [3]: data from phase 2 studies; cited from earlier work.
For series [4], the system named is patients with mild dyslipidemia. Briefly: Double-blind, placebo-controlled phase 2 trial: fasted lipid profile after 12 weeks. The series is classed as in vivo, human. The protocol: In a double-blind, placebo controlled clinical study the effects of 12 weeks of administration of Compound A alone and in combination with statins in patients with mild dyslipidemia was examined. […] Patients were recruited at 20 sites in the Netherlands and Denmark. The trial was approved by Independent Ethics Committees, and each patient provided written informed consent. The trial was conducted in accordance with the principles of the Declaration of Helsinki and Good Clinical Practice Guidelines and the protocol was registered on ClinicalTrials.gov (NCT01970215). The trial consisted of a screening visit, followed by a run-in phase of 4 weeks (or 6 weeks for patients that required a washout of existing lipid-lowering therapy). […] All treatments were to be taken once daily with food for 12 weeks. […] Follow-up visits were conducted 2 and 8 weeks after the end of treatment. Safety was assessed throughout the trial by monitoring adverse events and concomitant medication use, 12-lead electrocardiograms (ECGs), vital signs, laboratory safety assessments and physical examinations. Additional assessments included salivary cortisol, plasma aldosterone, high-sensitivity C-reactive protein (hsCRP) and endothelin 1. Efficacy assessments included fasted lipid profiles including total cholesterol (TC), HDL-C, LDL-C, triglycerides, apolipoproteins AI, B and E (ApoAI, Apo B and ApoE), lipoprotein a (Lp[a]) and derived parameters. […] Blood samples were collected for pharmacokinetic analysis of Compound A. Total cholesterol and triglycerides were measured by homogenous enzymatic assay using a Modular analyser (cholesterol oxidase peroxidase-peroxidase aminophenazone phenol [CHOP-PAP]) method and a glycerol phosphate oxidase [GPO-PAP] method, respectively. […] Lp(a) was measured by immunoturbidimetry using reagents and standards from Wako Chemicals (Germany). LDL particle size was determined by gradient gel electrophoresis. HDL fraction was separated by a combined ultracentrifugation-precipitation method ((β-quantification). HDL-2 and HDL-3 fractions were then separated by further ultracentrifugation. […] The measurements were performed on an Olympus AU600 automatic analyzer and were calibrated using secondary standards from Roche Diagnostics (total-cholesterol, triglycerides) and Diasys Diagnostics (free cholesterol, phospholipids), respectively. Esterified cholesterol was calculated as the difference between total-cholesterol and free cholesterol. […] The primary and secondary efficacy analyses were performed using an analysis of covariance (ANCOVA) model with treatment and use of statin therapy at randomisation as factors and the baseline value for the respective efficacy variable as a covariate. Least-squares means, standard errors and 2-tailed 95% confidence intervals for each treatment group and for pairwise comparisons between Compound A doses and placebo, between Compound A plus atorvastatin and atorvastatin alone, and between Compound A plus rosuvastatin and rosuvastatin alone were provided. As there were two co-primary efficacy variables, a closed testing procedure was used in order to control the family-wise error. No interim analyses were planned or conducted.

The test system is the same in series [5]. Briefly: Serum-driven cholesterol efflux, baseline versus week 12 of the phase 2 trial. The series is classed as in vivo, human. The settings on record: p<0.0001. From the text:
Bars are means and error bars are standard deviations. The baseline data only includes patients who had both baseline and week 12 data.
In this Figure baseline and week 12 data for serum-driven cholesterol efflux is shown. Bars are means and error bars are standard deviations. The baseline data only includes patients who had both baseline and week 12 data.

For series [6] the following is noted: in vivo; cited from earlier work.
The subject of series [7] is patients. The settings on record: 500 mg once daily monotherapy in patients; cited from earlier work.
In another series the test system is endothelin-1. Conditions: animal studies; cited from earlier work.
The conditions of series [8]: cited from earlier work.
Setting [9] is: atorvastatin (20 mg) once daily.
Where [10] appears, read: 2.5 mg of Compound A once daily.
The mark [11] stands for this setting: rosuvastatin (10 mg) once daily.

The values below come from patent US10300059B2, “Pharmaceutical composition and therapeutic combination comprising a cholesteryl ester transfer protein inhibitor and HMG CoA reductase inhibitors” (DEZIMA PHARMA B.V., priority 2014, dated 2019).

Molecules are shown by their SMILES. Like-named read-outs stand apart in the source and are kept apart here.

Regarding `COc1cc(F)c(C(C)C)cc1-c1ccc(C(F)(F)F)cc1CN1C(=O)O[C@H](c2cc(C(F)(F)F)cc(C(F)(F)F)c2)[C@@H]1C` [Anacetrapib, anacetrapib], the figures for the “decrease of LDL-C” value in the series with fasted healthy subjects and in the series on patients [1] were 36% and 40%, respectively. Further, the “increase of HDL C” value in the series on fasted healthy subjects is given as 97%; in the series on patients [1] it was 139%. In series [2], the half life is given as 2-4 years. The mineralocorticoid activity result in series [3] was “without mineralocorticoid activity”.
For `CC(C)c1c(C(=O)Nc2ccccc2)c(-c2ccccc2)c(-c2ccc(F)cc2)n1CC[C@@H](O)C[C@@H](O)CC(=O)O` [Atorvastatin, atorvastatin], in series [4] (setting [9]), the “HDL-C, percentage change at Week 12 compared to baseline” value (“HDL-C, percentage change” for short) is 1.27; the “LDL-C, percentage change at Week 12 compared to baseline” value (“LDL-C, percentage change” for short) is −46.73; the “Lp(a), percentage change at Week 12 compared to baseline” value (“Lp(a), percentage change” for short) is −4.46.
As for `CCOC(=O)N1c2ccc(C(F)(F)F)cc2[C@@H](N(Cc2cc(C(F)(F)F)cc(C(F)(F)F)c2)c2ncc(OCCCC(=O)O)cn2)C[C@H]1CC` [Compound A, {4-[(2-{[3,5-bis(trifluoromethyl)benzyl][(2R,4S)-1-(ethoxycarbonyl)-2-ethyl-6-(trifluoromethyl)-1,2,3,4-tetrahydroquinolin-4-yl]amino}pyrimidin-5-yl)oxy]butanoic acid}], the “HDL-C, percentage change” value in series [4] (1 mg of Compound A once daily) was found to be 76.04; in series [4] (setting [10]), 122.28; in series [4] (5 mg of Compound A once daily), 160.90; in series [4] (10 mg of Compound A once daily) it was 180.64. Also, the “LDL-C, percentage change” value in [4] (1 mg of Compound A once daily) is −27.05; in [4] (setting [10]), −34.38; in series [4] (5 mg of Compound A once daily), −47.49; in [4] (10 mg of Compound A once daily), −47.26. Also, the “Lp(a), percentage change” value is −28.81 in series [4] (1 mg of Compound A once daily), −26.69 in series [4] (setting [10]), −37.33 in series [4] (5 mg of Compound A once daily) and −34.86 in series [4] (10 mg of Compound A once daily). Besides, the “increase in the ability of serum to promote cholesterol efflux” value in [5] (1 mg of Compound A) came to 16.9%. The “increase in serum-mediated cholesterol efflux” value in [5] (10 mg dose of Compound A) was 36.7%.
With `CCC(CC)CC1(C(=O)Nc2ccccc2SC(=O)C(C)C)CCCCC1` [Dalcetrapib, dalcetrapib], in series [6], the “effects on LDL-C concentrations” value is recorded as “minimal effects” and the “increase of HDL-C” value is 30-40%.
As for `Cc1cc(C)c2c(c1)[C@@H](N(Cc1cc(C(F)(F)F)cc(C(F)(F)F)c1)c1nnn(C)n1)CCCN2C[C@H]1CC[C@H](C(=O)O)CC1` [Evacetrapib, evacetrapib], in the series on patients [7], the “decrease of LDL-C” value was 36% and the “increase of HDL-C” value is reported as 129%. The mineralocorticoid activity entry in [3] is recorded as “without mineralocorticoid activity”.
With `CC(C)c1nc(N(C)S(C)(=O)=O)nc(-c2ccc(F)cc2)c1/C=C/[C@@H](O)C[C@@H](O)CC(=O)O` [Rosuvastatin, rosuvastatin], in series [4] (setting [11]), the “HDL-C, percentage change” value came to 6.16; the “LDL-C, percentage change” value is listed as −47.36; the “Lp(a), percentage change” value is reported as −7.79.
For `CCOC(=O)N1c2ccc(C(F)(F)F)cc2[C@@H](N(Cc2cc(C(F)(F)F)cc(C(F)(F)F)c2)C(=O)OC)C[C@H]1CC` [Torcetrapib, torcetrapib], the “expression of endothelin-1” value with endothelin-1 is reported as “increases expression of endothelin-1”. Moreover, in series [8] (consistent with mineralocorticoid activity), the off-target effects entry is “increased blood pressure, changes in electrolytes (increases in sodium and bicarbonate and decreases in potassium) and increases in aldosterone”. In addition, in series [8] (dosed at 60 mg), the “decrease of LDL-C” value is 25% and the “increase of HDL-C” value is 72%. Further, the safety concerns result in [8] (in combination with the HMG CoA reductase inhibitor atorvastatin) was “unexpected increase in cardiovascular events and death”.
